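In this assay, cells in 96-well plates receive the compound at five concentrations for 48 hours. Endpoints are linearly interpolated between the surrounding concentrations. GI50 marks 50% less growth.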 Calls of active or inactive are those of the source. Rule as the data show it: active = GI50 up to about 1.1 µM and inactive = higher.
How the values were obtained:
Test in all cases: inhibition of tumour cell growth, NCI panel, 48 h
[1] = system: CCRF-CEM
[2] = system: HCC 2998
[3] = system: HCT-116
[4] = system: HT-29
[5] = system: IGROV-1
[6] = system: KM12
[7] = system: M14
[8] = system: MDA-MB-435
[9] = system: NCI-H226
[10] = system: OVCAR-4
[11] = system: OVCAR-5
[12] = system: RPMI-8226
[13] = system: RXF 393
[14] = system: SF-268
[15] = system: SF-295
[16] = system: SK-OV-3
[17] = system: SNB-19
[18] = system: SW-620
[19] = system: A498

SMILES | GI50 [1] | GI50 [2] | GI50 [3] | GI50 [4] | GI50 [5] | GI50 [6] | GI50 [7] | GI50 [8] | GI50 [9] | GI50 [10] | GI50 [11] | GI50 [12] | GI50 [13] | GI50 [14] | GI50 [15] | GI50 [16] | GI50 [17] | GI50 [18] | GI50 [19]
O=S(=O)(/C=C/C=C/S(=O)(=O)c1ccccc1)c1ccccc1 | 0.151 µM (active) | 11.5 µM (inactive) | 1.27 µM (inactive) | 1.18 µM (inactive) | 4.56 µM (inactive) | 2.29 µM (inactive) | 0.507 µM (active) | 1.45 µM (inactive) | 7.62 µM (inactive) | 1.65 µM (inactive) | 7.83 µM (inactive) | 0.419 µM (active) | 0.36 µM (active) | 1.7 µM (inactive) | 10.4 µM (inactive) | 8 µM (inactive) | 17.5 µM (inactive) | 0.172 µM (active) | –
O=C1c2ccccc2C(=O)c2c(Nc3ccc4c5c(cccc35)C(=O)c3ccccc3-4)cccc21 | – | > 100 µM (inactive) | > 100 µM (inactive) | > 100 µM (inactive) | 71.1 µM (inactive) | > 100 µM (inactive) | > 100 µM (inactive) | > 100 µM (inactive) | > 100 µM (inactive) | > 100 µM (inactive) | > 100 µM (inactive) | – | > 100 µM (inactive) | > 100 µM (inactive) | > 100 µM (inactive) | – | > 100 µM (inactive) | > 100 µM (inactive) | > 100 µM (inactive)
Cc1ncc([N+](=O)[O-])n1CCN=[N+]=[N-] | – | – | > 100 µM (inactive) | > 100 µM (inactive) | > 100 µM (inactive) | > 100 µM (inactive) | > 100 µM (inactive) | > 100 µM (inactive) | > 100 µM (inactive) | > 100 µM (inactive) | > 100 µM (inactive) | > 100 µM (inactive) | > 100 µM (inactive) | > 100 µM (inactive) | > 100 µM (inactive) | > 100 µM (inactive) | > 100 µM (inactive) | > 100 µM (inactive) | > 100 µM (inactive)
COC(C)C(O)(C(=O)OCC1=CCN2CCC(O)C12)C(C)(C)O (stereo not given) | > 100 µM (inactive) | > 100 µM (inactive) | > 100 µM (inactive) | > 100 µM (inactive) | > 100 µM (inactive) | > 100 µM (inactive) | > 100 µM (inactive) | > 100 µM (inactive) | > 100 µM (inactive) | > 100 µM (inactive) | > 100 µM (inactive) | > 100 µM (inactive) | – | > 100 µM (inactive) | > 100 µM (inactive) | > 100 µM (inactive) | > 100 µM (inactive) | > 100 µM (inactive) | > 100 µM (inactive)
N#C/C(=C\c1ccc(F)cc1)c1nc2ccccc2c(=O)[nH]1 | > 100 µM (inactive) | > 100 µM (inactive) | > 100 µM (inactive) | > 100 µM (inactive) | > 100 µM (inactive) | 3.91 µM (inactive) | > 100 µM (inactive) | > 100 µM (inactive) | > 100 µM (inactive) | > 100 µM (inactive) | > 100 µM (inactive) | > 100 µM (inactive) | > 100 µM (inactive) | 58.6 µM (inactive) | > 100 µM (inactive) | > 100 µM (inactive) | > 100 µM (inactive) | > 100 µM (inactive) | –
O=c1[nH]nc(-c2ccccc2)n1/N=C\CC/C=N\n1c(-c2ccccc2)n[nH]c1=O | > 10 µM (inactive) | 40.7 µM (inactive) | 24.2 µM (inactive) | 19.4 µM (inactive) | > 49.9 µM (inactive) | 34.8 µM (inactive) | 20.6 µM (inactive) | 22.7 µM (inactive) | 24.5 µM (inactive) | 52.4 µM (inactive) | 60 µM (inactive) | 25.3 µM (inactive) | > 67.5 µM (inactive) | 26.1 µM (inactive) | 47.3 µM (inactive) | 28.6 µM (inactive) | 45.1 µM (inactive) | 32.2 µM (inactive) | –
NC(=O)c1nnc2cc(F)c(F)cc2c1N | > 100 µM (inactive) | > 100 µM (inactive) | 72.1 µM (inactive) | > 100 µM (inactive) | 47.5 µM (inactive) | > 100 µM (inactive) | 67.5 µM (inactive) | 97.9 µM (inactive) | 11.9 µM (inactive) | > 100 µM (inactive) | 57.3 µM (inactive) | > 100 µM (inactive) | – | 21.6 µM (inactive) | 27.3 µM (inactive) | 25.5 µM (inactive) | 30.8 µM (inactive) | > 100 µM (inactive) | 41.1 µM (inactive)
O=c1c(O)c(-c2ccccc2)oc2c(CP(=O)(O)O)cccc12 | > 100 µM (inactive) | > 100 µM (inactive) | > 100 µM (inactive) | – | > 100 µM (inactive) | – | > 100 µM (inactive) | > 100 µM (inactive) | – | > 100 µM (inactive) | > 100 µM (inactive) | – | > 100 µM (inactive) | – | > 100 µM (inactive) | > 100 µM (inactive) | – | – | > 100 µM (inactive)
C/C=C1\CN2CCC34c5ccccc5N(C)C35OCC4(C(=O)OC)C1CC25 (stereo not given) | 42.7 µM (inactive) | 14 µM (inactive) | 36.6 µM (inactive) | – | 41.6 µM (inactive) | 37.1 µM (inactive) | 21.4 µM (inactive) | 38.7 µM (inactive) | – | 51.2 µM (inactive) | > 100 µM (inactive) | 24.7 µM (inactive) | – | > 100 µM (inactive) | 34.4 µM (inactive) | > 100 µM (inactive) | 59.8 µM (inactive) | 41.6 µM (inactive) | > 100 µM (inactive)
[N-]=[N+]=CC(=O)CCC(=O)N(c1ccccc1)c1ccccc1 | > 10 µM (inactive) | – | > 10 µM (inactive) | > 10 µM (inactive) | > 10 µM (inactive) | > 10 µM (inactive) | > 10 µM (inactive) | > 10 µM (inactive) | > 10 µM (inactive) | – | > 10 µM (inactive) | – | > 10 µM (inactive) | > 10 µM (inactive) | > 10 µM (inactive) | > 10 µM (inactive) | > 10 µM (inactive) | > 10 µM (inactive) | > 10 µM (inactive)
Cc1ccc(/C=C2\N=C(N3CCCCC3)NC2=O)cc1 | > 100 µM (inactive) | 58.1 µM (inactive) | > 100 µM (inactive) | 95.9 µM (inactive) | – | > 100 µM (inactive) | > 100 µM (inactive) | > 100 µM (inactive) | > 100 µM (inactive) | > 100 µM (inactive) | > 100 µM (inactive) | 60.8 µM (inactive) | > 100 µM (inactive) | 98.6 µM (inactive) | > 100 µM (inactive) | > 100 µM (inactive) | > 100 µM (inactive) | > 100 µM (inactive) | –
COC1C(O)C(C)OC(O[C@H]2CC[C@@]3(C)C(CC[C@@H]4[C@@H]3CC[C@]3(C)[C@@H](C(C)OC5OC(CO)C(O)C(O)C5O)CC[C@]43O)C2)C1O (stereo not given in full) | > 25 µM (inactive) | > 25 µM (inactive) | > 25 µM (inactive) | > 25 µM (inactive) | > 25 µM (inactive) | > 25 µM (inactive) | > 25 µM (inactive) | > 25 µM (inactive) | > 25 µM (inactive) | > 25 µM (inactive) | > 25 µM (inactive) | > 25 µM (inactive) | – | > 25 µM (inactive) | > 25 µM (inactive) | > 25 µM (inactive) | > 25 µM (inactive) | > 25 µM (inactive) | > 25 µM (inactive)
CCCCCCCCCCCCCCCCOP(=O)(O)OP(=O)(O)OCC1OC(n2cnc3c(N)ncnc32)C(O)C1O (stereo not given) | 30.5 µM (inactive) | 52.1 µM (inactive) | 45.5 µM (inactive) | 39.9 µM (inactive) | 66.8 µM (inactive) | > 100 µM (inactive) | 64.9 µM (inactive) | 56.5 µM (inactive) | 54.6 µM (inactive) | > 100 µM (inactive) | 11.5 µM (inactive) | – | 98.4 µM (inactive) | 73.8 µM (inactive) | – | 33 µM (inactive) | 34 µM (inactive) | > 100 µM (inactive) | > 100 µM (inactive)
COC(=O)[C@]1(c2cc3ccccc3[nH]2)CC2CN(C(=O)OCc3ccccc3)C1C=C2OC (stereo not given in full) | 24.8 µM (inactive) | 21.5 µM (inactive) | 28.8 µM (inactive) | 25.7 µM (inactive) | 42.7 µM (inactive) | 29 µM (inactive) | 20.8 µM (inactive) | 20.7 µM (inactive) | 23.1 µM (inactive) | 24.9 µM (inactive) | 21.3 µM (inactive) | 26.5 µM (inactive) | 22.7 µM (inactive) | 37.2 µM (inactive) | 27.2 µM (inactive) | 36.9 µM (inactive) | 42.1 µM (inactive) | 41.5 µM (inactive) | –
CC(=O)C(CN1C(=O)c2ccccc2C1=O)C(C)=O | – | > 100 µM (inactive) | > 100 µM (inactive) | > 100 µM (inactive) | > 100 µM (inactive) | – | > 100 µM (inactive) | > 100 µM (inactive) | > 100 µM (inactive) | > 100 µM (inactive) | > 100 µM (inactive) | – | 23.1 µM (inactive) | > 100 µM (inactive) | > 100 µM (inactive) | > 100 µM (inactive) | > 100 µM (inactive) | > 100 µM (inactive) | > 100 µM (inactive)
COc1ccc(-c2nnc3nc4ccccc4n3c2O)cc1 | > 100 µM (inactive) | > 100 µM (inactive) | > 100 µM (inactive) | > 100 µM (inactive) | > 100 µM (inactive) | > 100 µM (inactive) | > 100 µM (inactive) | > 100 µM (inactive) | > 100 µM (inactive) | > 100 µM (inactive) | > 100 µM (inactive) | – | 7.19 µM (inactive) | > 100 µM (inactive) | 10 µM (inactive) | – | > 100 µM (inactive) | > 100 µM (inactive) | > 100 µM (inactive)
